Test [1] deals with T1, stromelysin (MMP-3) (Homo sapiens, UniProt P08254).
T1 construct: enzymatic activity of the catalytic domains of human stromelysin and of neutrophil collagenase; made in house
The test can be described thus: Enzyme inhibition of the catalytic domain of human stromelysin (fluorogenic substrate). Type of test: biochemical. As to conditions: 15 min preincubation, pH=6.5, fluorescence 328 nm (ex)/393 nm (em). The method, then:
(§1) Preparation and determination of the enzymatic activity of the catalytic domains of human stromelysin and of neutrophil collagenase.
(§2) The enzymes stromelysin (MMP-3) and neutrophil collagenase (MMP-8) were prepared according to Ye et al. (Biochemistry; 31 (1992) pages 11231-11235). To measure the enzyme activity or the enzyme inhibitor action, 70 μl of buffer solution and 10 μl of enzyme solution are incubated for 15 min with 10 μl of a 10% strength (v/v) aqueous dimethyl sulfoxide solution, which optionally contains the enzyme inhibitor. After addition of 10 μl of a 10% strength (v/v) aqueous dimethyl sulfoxide solution which contains 1 mil/L of the substrates, the enzyme reaction is monitored by fluorescence spectroscopy (328 nm (ex)/393 nm(em)). The enzyme activity is shown as the extinction increase/min. The IC50 values listed in Table 2 are determined as those inhibitor concentrations which in each case lead to a 50% inhibition of the enzyme.
(§3) The buffer solution contains 0.05% Brij (Sigma, Deisenhofen, Germany) and also 0.1 mol/L tris/HCl, 0.1 mol/L NaCl, 0.01 mol/L CaCl2 and 0.1 mol/L piperazine-N,N′-bis(2-ethanesulfonic acid) (pH=6.5). The enzyme solution contains 5 μg/ml of one of the enzyme domains prepared according to Ye et al. The substrate solution contains 1 mil/L of the fluorogenic substrate (7-methoxycoumarin-4-yl)acetyl-Pro-Leu-Gly-Leu-3-(2′,4′-dinitrophenyl)-L-2,3-diaminopropionyl-Ala-Arg-NH2 (Bachem, Heidelberg, Germany).

Test [2] concerns the target T2, neutrophil collagenase (MMP-8) (Homo sapiens, UniProt P22894).
T2 construct: enzymatic activity of the catalytic domains of human stromelysin and of neutrophil collagenase; made in house
The test can be described thus: Enzyme inhibition of the catalytic domain of neutrophil collagenase (fluorogenic substrate). Type of test: biochemical. As to conditions: 15 min preincubation, pH=6.5, fluorescence 328 nm (ex)/393 nm (em). The method, then: as §1, §2, §3

SMILES strings stand for the structures.

T1 sequence (P08254 100-272 limits assumed): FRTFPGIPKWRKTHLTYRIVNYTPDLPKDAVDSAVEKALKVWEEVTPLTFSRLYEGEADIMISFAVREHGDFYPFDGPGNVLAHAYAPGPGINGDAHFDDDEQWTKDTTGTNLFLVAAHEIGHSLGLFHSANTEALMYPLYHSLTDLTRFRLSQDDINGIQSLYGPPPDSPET
T2 sequence (P22894 100-262 limits assumed): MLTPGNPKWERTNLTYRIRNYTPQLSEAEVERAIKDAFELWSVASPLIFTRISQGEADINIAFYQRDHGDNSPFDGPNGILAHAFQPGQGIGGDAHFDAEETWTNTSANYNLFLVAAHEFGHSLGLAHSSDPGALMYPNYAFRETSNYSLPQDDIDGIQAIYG

With `O=C(CC(C(=O)O)c1ccccc1)NCCC[C@@H](NS(=O)(=O)c1ccc(-c2ccc(Cl)cc2)cc1)C(=O)O` (single isomer, unassigned) [Example 38], the results for the half-inhibitory concentration (IC50) in test [1] and in test [2] were 5 nM and 2 nM, respectively.
Take `O=C(CC(C(=O)O)c1ccccc1)NCCC[C@@H](NS(=O)(=O)c1ccc(-c2ccc(Cl)cc2)cc1)C(=O)O` (single isomer, unassigned) [Example 39]: the IC50 in test [1] is 20 nM; in test [2], 30 nM.
As to `O=C(NCCC[C@H](NS(=O)(=O)c1ccc(-c2ccc(Cl)cc2)cc1)C(=O)O)NS(=O)(=O)c1ccccc1` (single isomer, unassigned) [Example 61], the values for the half-maximal inhibitory concentration (IC50) in test [1] and in test [2] were 6 nM and 2 nM, respectively.
`NC(=O)NCCC[C@@H](NS(=O)(=O)c1ccc(-c2ccc(Cl)cc2)cc1)C(=O)O` [Example 1, (R)-(4-Chlorobiphenylsulfonyl)citrulline]: the half-inhibitory concentration (IC50) in test [1] worked out at 50 nM; in test [2], 7 nM.
Consider `CC(C)(C)OC(=O)NCCCC[C@@H](NS(=O)(=O)c1ccc(-c2ccc(Cl)cc2)cc1)C(=O)O` [Example 2, R-(4-Chlorobiphenylsulfonyl)-Lys(Boc)-OH], for which the half-inhibitory concentration (IC50) worked out at 20 nM in test [1] and 6 nM in test [2].
Turning to `Cc1oncc1C(=O)NCCCC[C@@H](NS(=O)(=O)c1ccc(-c2ccc(Cl)cc2)cc1)C(=O)O` [Example 4, 4-Chlorobiphenylsulfonyl-N-epsilon-(5-methylisoxazol-4-carbonyl)-Lys-OH], the IC50 is 90 nM in test [1] and 20 nM in test [2].
With `O=C(NCCC[C@H](NS(=O)(=O)c1ccc(-c2ccc(Cl)cc2)cc1)C(=O)O)NS(=O)(=O)c1ccccc1` [Example 5, (4-Chlorobiphenylsulfonyl)-N-delta-(phenylsulfonylamino-carbonyl)-Orn-OH], the IC50 in test [1] worked out at 50 nM; in test [2] it was 4 nM.
The corresponding values for `O=C(O)[C@@H](CCCN1Cc2ccccc2C1=O)NS(=O)(=O)c1ccc(-c2ccc(Cl)cc2)cc1` [Example 7, 2-(2R)-(4-Chlorobiphenylsulfonylamino)-5-(1-oxo-1,3-dihydro-isoindol-2-yl)pentanoic acid] are 4 nM and 2 nM.
For `CC(=O)NCCCC[C@@H](NS(=O)(=O)CCc1ccc(-c2ccccc2)cc1)C(=O)O` [Example 9, R-(4-Biphenylethylsulfonyl)-N-epsilon-acetyl-Lys-OH], the concentration for half-maximal inhibition (IC50) in test [1] is 60 nM; in test [2], 70 nM.
Take `NCCCC[C@H](NS(=O)(=O)c1ccc(-c2ccc(Cl)cc2)cc1)C(=O)O` [Example 12]: the IC50 in test [1] amounted to 60 nM; in test [2], 10 nM.
In the case of `CC(C)(C)OC(=O)NCCC[C@H](NS(=O)(=O)c1ccc(-c2ccc(Cl)cc2)cc1)C(=O)O` [Example 14], the 50% inhibitory concentration (IC50) worked out at 5 nM in test [1] and 3 nM in test [2].
The corresponding values for `O=C(NCCC[C@H](NS(=O)(=O)c1ccc(-c2ccc(Cl)cc2)cc1)C(=O)O)OCc1ccccc1` [Example 15] are 20 nM and 8 nM.
Take `O=C(NCCCC[C@H](NS(=O)(=O)c1ccc(-c2ccc(Cl)cc2)cc1)C(=O)O)OCc1ccccc1` [Example 16]: the IC50 in test [1] turned out to be 20 nM; in test [2] it was 10 nM.
On to `CC(=O)NCSC[C@@H](NS(=O)(=O)c1ccc(-c2ccc(Cl)cc2)cc1)C(=O)O` [Example 18], for which the half-maximal inhibitory concentration (IC50) in test [1] is 70 nM; in test [2] it was 10 nM.
For `O=C(NCCC[C@H](NS(=O)(=O)c1ccc(-c2ccc(Cl)cc2)cc1)C(=O)O)c1cnccn1` [Example 19], in that order: 20 nM and 5 nM.
As for `Cc1oncc1C(=O)NCCC[C@@H](NS(=O)(=O)c1ccc(-c2ccc(Cl)cc2)cc1)C(=O)O` [Example 20], the IC50 in test [1] came to 40 nM; in test [2] it was 7 nM.
For `Cc1ccc(S(=O)(=O)NC(=N)NCCC[C@H](NS(=O)(=O)c2ccc(-c3ccc(Cl)cc3)cc2)C(=O)O)cc1` [Example 21], in that order: 70 nM and 20 nM.
The corresponding values for `Cc1ccc(S(=O)(=O)NC(=N)NCCC[C@@H](NS(=O)(=O)c2ccc(-c3ccc(Cl)cc3)cc2)C(=O)O)cc1` [Example 22] are 80 nM and 80 nM.
`NC(=O)NCCCC[C@@H](NS(=O)(=O)c1ccc(-c2ccc(Cl)cc2)cc1)C(=O)O` [Example 23]: the results for the 50% inhibitory concentration (IC50) in test [1] and in test [2] were 40 nM and 5 nM, respectively.
`NC(=O)NCCCC[C@H](NS(=O)(=O)c1ccc(-c2ccc(Cl)cc2)cc1)C(=O)O` [Example 24]: the concentration for half-maximal inhibition (IC50) in test [1] amounted to 30 nM; in test [2], 5 nM.
Turning to `N/C(=N\[N+](=O)[O-])NCCC[C@H](NS(=O)(=O)c1ccc(-c2ccc(Cl)cc2)cc1)C(=O)O` [Example 25], the IC50 was 60 nM in test [1] and 10 nM in test [2].
For `N/C(=N\[N+](=O)[O-])NCCC[C@@H](NS(=O)(=O)c1ccc(-c2ccc(Cl)cc2)cc1)C(=O)O` [Example 26], the 50% inhibitory concentration (IC50) in test [1] was found to be 60 nM; in test [2] it was 7 nM.
Take `CC(C)(C)OC(=O)NCCC[C@H](NS(=O)(=O)c1ccc(-c2ccc(Cl)cc2)cc1)C(=O)O` [Example 36]: the IC50 in test [2] is 2 nM. This counts as single-digit nanomolar.
`O=C(NCCC[C@@H](NS(=O)(=O)c1ccc(-c2ccc(Cl)cc2)cc1)C(=O)O)C1CC1` [Example 41]: the IC50 in test [1] was found to be 5 nM; in test [2] it was 2 nM.
Take `O=C(NCCC[C@@H](NS(=O)(=O)c1ccc(-c2ccc(Cl)cc2)cc1)C(=O)O)Nc1ccccc1` [Example 42]: the half-maximal inhibitory concentration (IC50) stood at 10 nM in test [1] and 3 nM in test [2].
With `CN(C)c1ccc(C(=O)NCCC[C@@H](NS(=O)(=O)c2ccc(-c3ccc(Cl)cc3)cc2)C(=O)O)cc1` [Example 43], the IC50 in test [1] stood at 40 nM; in test [2], 20 nM.
With `CC(=O)Oc1ccccc1C(=O)NCCC[C@H](NS(=O)(=O)c1ccc(-c2ccccc2)cc1)C(=O)O` [Example 44], the concentration for half-maximal inhibition (IC50) was 30 nM in test [1] and 6 nM in test [2].
Regarding `O=C(NCCC[C@H](NS(=O)(=O)c1ccc(-c2ccccc2)cc1)C(=O)O)c1ccccc1O` [Example 45], the results for the IC50 in test [1] and in test [2] were 20 nM and 4 nM, respectively.
Regarding `CC(C)(C)CC(=O)NCCC[C@@H](NS(=O)(=O)c1ccc(-c2ccc(Cl)cc2)cc1)C(=O)O` [Example 46], the IC50 in test [1] worked out at 10 nM; in test [2], 3 nM.
Take `O=C(NCCC[C@@H](NS(=O)(=O)c1ccc(-c2ccc(Cl)cc2)cc1)C(=O)O)c1ccc(F)cc1` [Example 47]: the 50% inhibitory concentration (IC50) worked out at 10 nM in test [1] and 3 nM in test [2].
Consider `O=C(NCCC[C@@H](NS(=O)(=O)c1ccc(-c2ccc(Cl)cc2)cc1)C(=O)O)c1ccc2c(c1)OCO2` [Example 48], for which the results for the IC50 in test [1] and in test [2] were 20 nM and 7 nM, respectively.
As for `CC(C)(C)CC(=O)NCCC[C@H](NS(=O)(=O)c1ccc(-c2ccc(Cl)cc2)cc1)C(=O)O` [Example 49], the IC50 in test [1] stood at 20 nM; in test [2] it was 3 nM.
Turning to `O=C(NCCC[C@H](NS(=O)(=O)c1ccc(-c2ccc(Cl)cc2)cc1)C(=O)O)c1ccccn1` [Example 50], the values for the IC50 in test [1] and in test [2] were 6 nM and 2 nM, respectively.
With `O=C(NCCC[C@H](NS(=O)(=O)c1ccc(-c2ccc(Cl)cc2)cc1)C(=O)O)c1cccnc1` [Example 51], the concentration for half-maximal inhibition (IC50) in test [1] was found to be 20 nM; in test [2], 3 nM.
On to `COc1ccc(C(=O)NCCC[C@H](NS(=O)(=O)c2ccc(-c3ccc(Cl)cc3)cc2)C(=O)O)cc1OC` [Example 52], for which the concentration for half-maximal inhibition (IC50) in test [1] was found to be 20 nM; in test [2], 10 nM.
On to `C[C@H](NC(=O)OC(C)(C)C)C(=O)NCCC[C@H](NS(=O)(=O)c1ccc(-c2ccc(Cl)cc2)cc1)C(=O)O` [Example 53], for which the values for the 50% inhibitory concentration (IC50) in test [1] and in test [2] were 30 nM and 6 nM, respectively.
As for `O=C(CC(C(=O)O)c1ccccc1)NCCC[C@H](NS(=O)(=O)c1ccc(-c2ccc(Cl)cc2)cc1)C(=O)O` (stereo partly shown) [Example 55], the IC50 in test [1] was 7 nM; in test [2], 3 nM.
For `COc1ccc(S(=O)(=O)NCCC[C@H](NS(=O)(=O)c2ccc(-c3ccc(Cl)cc3)cc2)C(=O)O)cc1` [Example 56], in that order: 10 nM and 8 nM.
For the compound `CC(C)(C)C(=O)NCCC[C@H](NS(=O)(=O)c1ccc(-c2ccc(Cl)cc2)cc1)C(=O)O` [Example 57], the results for the concentration for half-maximal inhibition (IC50) in test [1] and in test [2] were 40 nM and 8 nM, respectively.
For `CN(C)c1ccc(-c2ccc(S(=O)(=O)N[C@@H](CCCNC(=O)OC(C)(C)C)C(=O)O)cc2)cc1` [Example 59], the IC50 in test [1] came out at 5 nM; in test [2], 1 nM.
For `COc1ccc(S(=O)(=O)NCCC[C@H](NS(=O)(=O)c2ccc(-c3ccc(Cl)cc3)cc2)C(=O)O)cc1OC` [Example 60], the IC50 in test [1] and in test [2] was 10 nM throughout.
With `O=C(NCCC[C@H](NS(=O)(=O)c1ccc(-c2ccc(Cl)cc2)cc1)C(=O)O)C1CC1` [Example 62], the IC50 turned out to be 5 nM in test [1] and 2 nM in test [2].
For `O=C(O)[C@H](CCCN(C(=O)C1CC1)C(=O)C1CC1)NS(=O)(=O)c1ccc(-c2ccc(Cl)cc2)cc1` [Example 63], in that order: 10 nM and 2 nM.

As a reminder, the IC50 is the concentration that inhibits the measured activity by half. Low readings indicate greater potency, high ones weaker potency.

Values taken from US6355673B1, “Substituted diaminocarboxylic acids” (Aventis Pharma Deutschland GmbH, priority 1997, dated 2002).
